Test results as given in the supplement of paper PMC11451515.

Tested on: P12-Ichikawa
Assay: cell viability relative to DMSO control; higher = less cytotoxic
Settings: 48 h
Procedure, shortened: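 Viability, reported as a per-plate percentage of DMSO wells with cell-free wells as background, came from CellTiter-Glo One luminescence. Reading took place after 48 h at 37°C. Before that, NOMO1 or SEM (500 cells/well) or P12-Ichikawa (1000 cells/well) leukemia cells, adapted for at least four passages in each medium, were seeded in 1536-well plates (5 μl) and pin-dosed with library compounds in DMSO, 47 μM to 0.79 nM over 11 threefold points.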

[1] = HPLM + 10% dialyzed FBS, 0.000781 µM
[2] = HPLM + 10% dialyzed FBS, 0.00234 µM
[3] = HPLM + 10% dialyzed FBS, 0.00702 µM
[4] = HPLM + 10% dialyzed FBS, 0.0211 µM
[5] = HPLM + 10% dialyzed FBS, 0.0632 µM
[6] = HPLM + 10% dialyzed FBS, 0.19 µM
[7] = HPLM + 10% dialyzed FBS, 0.569 µM
[8] = HPLM + 10% dialyzed FBS, 1.71 µM
[9] = HPLM + 10% dialyzed FBS, 5.12 µM
[10] = HPLM + 10% dialyzed FBS, 15.4 µM
[11] = HPLM + 10% dialyzed FBS, 46.1 µM
[12] = RPMI 5 mM glucose + 10% FBS, 0.000781 µM
[13] = RPMI 5 mM glucose + 10% FBS, 0.00234 µM
[14] = RPMI 5 mM glucose + 10% FBS, 0.00702 µM
[15] = RPMI 5 mM glucose + 10% FBS, 0.0211 µM
[16] = RPMI 5 mM glucose + 10% FBS, 0.0632 µM
[17] = RPMI 5 mM glucose + 10% FBS, 0.19 µM
[18] = RPMI 5 mM glucose + 10% FBS, 0.569 µM
[19] = RPMI 5 mM glucose + 10% FBS, 1.71 µM
[20] = RPMI 5 mM glucose + 10% FBS, 5.12 µM
[21] = RPMI 5 mM glucose + 10% FBS, 15.4 µM
[22] = RPMI 5 mM glucose + 10% FBS, 46.1 µM
[23] = RPMI 5 mM glucose + 10% dialyzed FBS, 0.000781 µM
[24] = RPMI 5 mM glucose + 10% dialyzed FBS, 0.00234 µM
[25] = RPMI 5 mM glucose + 10% dialyzed FBS, 0.00702 µM
[26] = RPMI 5 mM glucose + 10% dialyzed FBS, 0.0211 µM
[27] = RPMI 5 mM glucose + 10% dialyzed FBS, 0.0632 µM
[28] = RPMI 5 mM glucose + 10% dialyzed FBS, 0.19 µM
[29] = RPMI 5 mM glucose + 10% dialyzed FBS, 0.569 µM
[30] = RPMI 5 mM glucose + 10% dialyzed FBS, 1.71 µM
[31] = RPMI 5 mM glucose + 10% dialyzed FBS, 5.12 µM
[32] = RPMI 5 mM glucose + 10% dialyzed FBS, 15.4 µM
[33] = RPMI 5 mM glucose + 10% dialyzed FBS, 46.1 µM

SMILES | cell viability [1] | cell viability [2] | cell viability [3] | cell viability [4] | cell viability [5] | cell viability [6] | cell viability [7] | cell viability [8] | cell viability [9] | cell viability [10] | cell viability [11] | cell viability [12] | cell viability [13] | cell viability [14] | cell viability [15] | cell viability [16] | cell viability [17] | cell viability [18] | cell viability [19] | cell viability [20] | cell viability [21] | cell viability [22] | cell viability [23] | cell viability [24] | cell viability [25] | cell viability [26] | cell viability [27] | cell viability [28] | cell viability [29] | cell viability [30] | cell viability [31] | cell viability [32] | cell viability [33]
CCCCOc1c(C(=O)c2c(F)cc(C)cc2F)cnc2[nH]ncc12 | 97.5% | 102% | 104% | 109% | 107% | 89.6% | 104% | 107% | 102% | 91.3% | 95.5% | 104% | 99% | 107% | 102% | 104% | 108% | 103% | 105% | 88.4% | 94.4% | 77.9% | 107% | 104% | 102% | 104% | 101% | 97.4% | 93.8% | 94.6% | 78.9% | 89.6% | 81.3%
COC(=O)C\1=C(C)\N\C(=C(/C1C2=CC=CC3=NON=C23)C(=O)OC(C)C)C (configuration not stated) | 100% | 102% | 99.4% | 95% | 102% | 93.8% | 96.9% | 96.1% | 88% | 90.2% | 87.7% | 96.1% | 101% | 100% | 94.8% | 104% | 98.8% | 93.1% | 94.2% | 87% | 86.9% | 87.4% | 97.6% | 94.6% | 88.5% | 95.2% | 101% | 90.4% | 88.7% | 87.2% | 93.4% | 86.6% | 86.1%
CN(C)CC(C)(C)CNc1nn2c(-c3ccccc3)nnc2cc1C1CCC1 | 106% | 103% | 110% | 111% | 112% | 110% | 94.9% | 111% | 84.2% | 33.9% | 6.88% | 108% | 111% | 104% | 102% | 109% | 106% | 87.8% | 105% | 70.3% | 46.7% | 6.32% | 105% | 111% | 107% | 111% | 113% | 115% | 98.3% | 113% | 88.1% | 76.9% | 13.6%
C[C@]12CC[C@H]3[C@@H](CCC4=CC(=O)CC[C@@H]43)[C@@H]1CC[C@@H]2OC(=O)CCc1ccccc1 | 116% | 115% | 117% | 115% | 113% | 121% | 120% | 120% | 121% | 119% | 117% | – | – | – | – | – | – | – | – | – | – | – | 104% | 113% | 112% | 106% | 115% | 119% | 113% | 123% | 112% | 114% | 104%
Nc1ncnc2c1ncn2[C@@H]1O[C@H](CO)C[C@H]1O | 92.5% | 96.4% | 92.8% | 93.1% | 98.8% | 94.1% | 93.1% | 88.8% | 92.2% | 89.3% | 89% | 87.9% | 104% | 94% | 94.4% | 87.7% | 96% | 93% | 93.5% | 85.3% | 86.8% | 87.6% | 83.8% | 90.1% | 97.7% | 90.9% | 87.4% | 91.2% | 94.5% | 87.6% | 86.1% | 89.6% | 92.3%
CC1=CC(=CC(=C1C\C2=N\CCN2)C)C(C)(C)C | 102% | 105% | 105% | 106% | 105% | 124% | 107% | 116% | 106% | 104% | 102% | 99.5% | 105% | 105% | 114% | 118% | 113% | 111% | 114% | 99.3% | 86.4% | 90.2% | 91% | 96.4% | 98.1% | 100% | 105% | 92.9% | 103% | 102% | 97.9% | 91.4% | 84.1%
